Reference: publication PMC5303205, “Comparative studies on the multi-component pharmacokinetics of Aristolochiae Fructus and honey-fried Aristolochiae Fructus extracts after oral administration in rats” (BMC Complementary and Alternative Medicine, 2017)
Read-outs that look alike come from different tables or passages of the source.

Experiments:
[1] = Multi-component pharmacokinetics of AAs in rats after oral administration of AF and HAF extracts (HPLC-MS/MS of plasma); set-up: species or system Sprague–Dawley (SD) rats; conditions: Sprague-Dawley, rat, in vivo
Summary of the method: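 Rats were fasted 12 h and given AF or HAF extracts orally in 0.5% CMC–Na at 3.0, 8.0 or 15.0 mg/kg (as AA I), n = 6 per group. Ocular-vein plasma was sampled 0–24 h, ethyl-acetate extracted with internal standard, and analysed by C18 HPLC-MS/MS (positive ESI, MRM). Cmax was observed and other parameters model-fitted.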

[2] = Stability of AAs in rat plasma (QC samples, HPLC-MS/MS); type: in vitro ADME; conditions: n = 5; for Short-term stability (RSD/%): fresh rat plasma at room temperature for 24 h before sample preparation; for Post-preparation stability (RSD/%): prepared rat plasma samples at room temperature for 24 h; for Long-term stability (RSD/%): rat plasma stored at –20 °C for 14 days; for Freeze-thaw stability (RSD/%): rat plasma, three freeze-thaw cycles (–20 °C 24 h, thawed at room temperature)
Summary of the method: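 Rat plasma QC samples tested over three freeze-thaw cycles (–20 °C 24 h, thawed at room temperature), 14 days at –20 °C, 24 h at room temperature before preparation, and 24 h post-preparation, by HPLC-MS/MS. Mean concentrations compared with freshly prepared samples; bias within ±15% accepted.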

[3] = 3 mg/kg, AF extract, low dose (3.0 mg/kg as AA I), analyte dose mg/kg: AA I 3.0, AA II 0.21, AA C 1.42, AA D 1.60, 7-OH AA I 2.33, n = 6
[4] = 3 mg/kg, HAF extract, low dose (3.0 mg/kg as AA I), analyte dose mg/kg: AA I 3.0, AA II 0.26, AA C 1.53, AA D 1.51, 7-OH AA I 2.48, n = 6
[5] = 8 mg/kg, AF extract, mid dose (8.0 mg/kg as AA I), analyte dose mg/kg: AA I 8.0, AA II 0.56, AA C 3.78, AA D 4.26, 7-OH AA I 6.22, n = 6
[6] = 8 mg/kg, HAF extract, mid dose (8.0 mg/kg as AA I), analyte dose mg/kg: AA I 8.0, AA II 0.69, AA C 4.09, AA D 4.03, 7-OH AA I 6.62, n = 6
[7] = 15 mg/kg, AF extract, high dose (15.0 mg/kg as AA I), analyte dose mg/kg: AA I 15.0, AA II 1.05, AA C 7.09, AA D 8.00, 7-OH AA I 11.66, n = 6
[8] = 15 mg/kg, HAF extract, high dose (15.0 mg/kg as AA I), analyte dose mg/kg: AA I 15.0, AA II 1.29, AA C 7.66, AA D 7.56, 7-OH AA I 12.41, n = 6
[9] = high QC conc ng/mL: AA I 1830, AA II 3200, AA C 2980, AA D 3680, 7-OH AA I 3280
[10] = low QC conc ng/mL: AA I 1.83, AA II 8.00, AA C 186.3, AA D 36.8, 7-OH AA I 82.0
[11] = middle QC conc ng/mL: AA I 457.5, AA II 400, AA C 372.5, AA D 460, 7-OH AA I 410

COc1cc(O)cc2c1cc([N+](=O)[O-])c1c(C(=O)O)cc3c(c12)OCO3 [AA D]
AUC(0-inf) [1, 3]: 194 ng·h/mL | Cmax [1, 3]: 78.5 ng/mL | Tmax [1, 3]: 0.56 h | CL/F ([1]; 3 mg/kg, AF extract, low dose (3.0 mg/kg as AA I), analyte dose mg/kg: AA I 3.0, AA II 0.21, AA C 1.42, AA D 1.60, 7-OH AA I 2.33, n = 6, read-out: CLz/F (converted)): 168 mL/min/kg | Vd/F ([1]; 3 mg/kg, AF extract, low dose (3.0 mg/kg as AA I), analyte dose mg/kg: AA I 3.0, AA II 0.21, AA C 1.42, AA D 1.60, 7-OH AA I 2.33, n = 6, read-out: Vz/F): 35.7 L/kg | half-life ([1]; 3 mg/kg, AF extract, low dose (3.0 mg/kg as AA I), analyte dose mg/kg: AA I 3.0, AA II 0.21, AA C 1.42, AA D 1.60, 7-OH AA I 2.33, n = 6, read-out: t 1/2z (converted)): 2.45 h | AUC(0-inf) [1, 4]: 179 ng·h/mL | Cmax [1, 4]: 58.6 ng/mL | Tmax [1, 4]: 0.78 h | CL/F ([1]; 3 mg/kg, HAF extract, low dose (3.0 mg/kg as AA I), analyte dose mg/kg: AA I 3.0, AA II 0.26, AA C 1.53, AA D 1.51, 7-OH AA I 2.48, n = 6, read-out: CLz/F (converted)): 158 mL/min/kg | Vd/F ([1]; 3 mg/kg, HAF extract, low dose (3.0 mg/kg as AA I), analyte dose mg/kg: AA I 3.0, AA II 0.26, AA C 1.53, AA D 1.51, 7-OH AA I 2.48, n = 6, read-out: Vz/F): 30.6 L/kg | half-life ([1]; 3 mg/kg, HAF extract, low dose (3.0 mg/kg as AA I), analyte dose mg/kg: AA I 3.0, AA II 0.26, AA C 1.53, AA D 1.51, 7-OH AA I 2.48, n = 6, read-out: t 1/2z (converted)): 2.05 h | AUC(0-inf) [1, 5]: 402 ng·h/mL | Cmax [1, 5]: 126 ng/mL | Tmax [1, 5]: 0.56 h | CL/F ([1]; 8 mg/kg, AF extract, mid dose (8.0 mg/kg as AA I), analyte dose mg/kg: AA I 8.0, AA II 0.56, AA C 3.78, AA D 4.26, 7-OH AA I 6.22, n = 6, read-out: CLz/F (converted)): 359 mL/min/kg | Vd/F ([1]; 8 mg/kg, AF extract, mid dose (8.0 mg/kg as AA I), analyte dose mg/kg: AA I 8.0, AA II 0.56, AA C 3.78, AA D 4.26, 7-OH AA I 6.22, n = 6, read-out: Vz/F): 75.7 L/kg | half-life ([1]; 8 mg/kg, AF extract, mid dose (8.0 mg/kg as AA I), analyte dose mg/kg: AA I 8.0, AA II 0.56, AA C 3.78, AA D 4.26, 7-OH AA I 6.22, n = 6, read-out: t 1/2z (converted)): 2.43 h | AUC(0-inf) [1, 6]: 323 ng·h/mL | Cmax [1, 6]: 89.2 ng/mL | Tmax [1, 6]: 0.75 h | CL/F ([1]; 8 mg/kg, HAF extract, mid dose (8.0 mg/kg as AA I), analyte dose mg/kg: AA I 8.0, AA II 0.69, AA C 4.09, AA D 4.03, 7-OH AA I 6.62, n = 6, read-out: CLz/F (converted)): 190 mL/min/kg | Vd/F ([1]; 8 mg/kg, HAF extract, mid dose (8.0 mg/kg as AA I), analyte dose mg/kg: AA I 8.0, AA II 0.69, AA C 4.09, AA D 4.03, 7-OH AA I 6.62, n = 6, read-out: Vz/F): 37.8 L/kg | half-life ([1]; 8 mg/kg, HAF extract, mid dose (8.0 mg/kg as AA I), analyte dose mg/kg: AA I 8.0, AA II 0.69, AA C 4.09, AA D 4.03, 7-OH AA I 6.62, n = 6, read-out: t 1/2z (converted)): 2.3 h | AUC(0-inf) [1, 7]: 960 ng·h/mL | Cmax [1, 7]: 155 ng/mL | Tmax [1, 7]: 0.64 h | CL/F ([1]; 15 mg/kg, AF extract, high dose (15.0 mg/kg as AA I), analyte dose mg/kg: AA I 15.0, AA II 1.05, AA C 7.09, AA D 8.00, 7-OH AA I 11.66, n = 6, read-out: CLz/F (converted)): 560 mL/min/kg | Vd/F ([1]; 15 mg/kg, AF extract, high dose (15.0 mg/kg as AA I), analyte dose mg/kg: AA I 15.0, AA II 1.05, AA C 7.09, AA D 8.00, 7-OH AA I 11.66, n = 6, read-out: Vz/F): 153 L/kg | half-life ([1]; 15 mg/kg, AF extract, high dose (15.0 mg/kg as AA I), analyte dose mg/kg: AA I 15.0, AA II 1.05, AA C 7.09, AA D 8.00, 7-OH AA I 11.66, n = 6, read-out: t 1/2z (converted)): 2.89 h | AUC(0-inf) [1, 8]: 590 ng·h/mL | Cmax [1, 8]: 148 ng/mL | Tmax [1, 8]: 0.63 h | CL/F ([1]; 15 mg/kg, HAF extract, high dose (15.0 mg/kg as AA I), analyte dose mg/kg: AA I 15.0, AA II 1.29, AA C 7.66, AA D 7.56, 7-OH AA I 12.41, n = 6, read-out: CLz/F (converted)): 206 mL/min/kg | Vd/F ([1]; 15 mg/kg, HAF extract, high dose (15.0 mg/kg as AA I), analyte dose mg/kg: AA I 15.0, AA II 1.29, AA C 7.66, AA D 7.56, 7-OH AA I 12.41, n = 6, read-out: Vz/F): 47.9 L/kg | half-life ([1]; 15 mg/kg, HAF extract, high dose (15.0 mg/kg as AA I), analyte dose mg/kg: AA I 15.0, AA II 1.29, AA C 7.66, AA D 7.56, 7-OH AA I 12.41, n = 6, read-out: t 1/2z (converted)): 2.4 h | Short-term stability (RSD/%) [2, 9]: 8.6% | Short-term stability (RSD/%) [2, 10]: 5.0% | Short-term stability (RSD/%) [2, 11]: 11.7% | Post-preparation stability (RSD/%) [2, 9]: 2.8% | Post-preparation stability (RSD/%) [2, 10]: 4.5% | Post-preparation stability (RSD/%) [2, 11]: 3.1% | Long-term stability (RSD/%) [2, 9]: 12.7% | Long-term stability (RSD/%) [2, 10]: 5.2% | Long-term stability (RSD/%) [2, 11]: 2.5% | Freeze-thaw stability (RSD/%) [2, 9]: 14.3% | Freeze-thaw stability (RSD/%) [2, 10]: 4.8% | Freeze-thaw stability (RSD/%) [2, 11]: 8.4%
